Assay results reported in patent US7365067B2, “Indanol derivative” (Sankyo Company, Limited, priority 2004, dated 2008).

Molecular target: T1, NK2 receptor (Cavia porcellus, UniProt Q64077)
T1 construct: in normal guinea pigs (body weights: about 500 g, Hartley male guinea pigs); from tissue; host or cells: airways of live Hartley male guinea pigs (in vivo)
T1 sequence (Q64077 1-402): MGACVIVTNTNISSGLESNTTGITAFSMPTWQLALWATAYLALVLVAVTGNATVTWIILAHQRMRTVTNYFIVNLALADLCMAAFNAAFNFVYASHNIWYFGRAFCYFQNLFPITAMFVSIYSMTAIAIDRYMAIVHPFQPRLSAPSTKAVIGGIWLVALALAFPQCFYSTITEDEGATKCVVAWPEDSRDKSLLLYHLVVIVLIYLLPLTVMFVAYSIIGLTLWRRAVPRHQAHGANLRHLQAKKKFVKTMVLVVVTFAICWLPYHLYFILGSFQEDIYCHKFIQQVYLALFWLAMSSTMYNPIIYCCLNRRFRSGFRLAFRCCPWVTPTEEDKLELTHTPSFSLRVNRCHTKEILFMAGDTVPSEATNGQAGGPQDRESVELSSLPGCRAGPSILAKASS
Assay: Inhibitory Action on Airway Contraction (In Vivo, Transtracheal Administration), induced by neurokinin A (NKA)
Parameters: species or system guinea pig
Conditions: Hartley male guinea pigs; 10 μg/kg transtracheal; NKA 4 μg/kg i.v. administered 16 hours after test substance; relative to 5% glucose control group
Text: Inhibitory Action on Airway Contraction (In Vivo, Transtracheal Administration)
The inhibitory action on airway contraction by the NK2 receptor agonist, neurokinin A (NKA) was investigated using airway internal pressure as an indicator in normal guinea pigs (body weights: about 500 g, Hartley male guinea pigs) using a variation of the method of Konzett-Roessler (Naunyn-Schmiedebergs Arch. Exp. Pathol. Pharmakol. 195, 71 (1940)).
A tracheal cannula and venous cannula were implanted in the guinea pigs under pentobarbital anesthesia (50 mg/mL of liquid, 0.40 to 0.50 mL/body, s.c.). In addition, an arterial cannula filled with heparin-containing physiological saline (100 U/mL) was implanted to monitor blood pressure and heart rate via an amplifier and instantaneous cardiograph. Next, after administering gallamine (20 mg/kg, i.v.) and interrupting spontaneous respiration, positive pressure ventilation (Ugo-Basile Biological Research Apparatus, Cat. No. 7025) was rapidly carried out at 10 mL/kg and 60 times/minute. The airway internal pressure during artificial respiration was detected with a pressure transducer (Nihon Koden, TP-200T or TP-400T) implanted in the lateral branch of the tracheal cannula, amplified (Nihon Koden, AP-601G) and recorded with a recorder (Nihon Koden, WT-645G or WT-685G). After the airway internal pressure, blood pressure and heart rate had stabilized, the standard tracheal contracting substance, methacholine was administered at 10 μg/kg (100 μg/mL, 0.10 mL/kg) to confirm airway response. In the case the prescribed contraction response was not obtained, methacholine was additionally administered at 12 μg/kg (120 μg/mL, 0.10 mL/kg) followed by confirmation of airway response. Five minutes after confirming airway response, NKA was administered intravenously through the intravenous cannula at 4 μg/kg to induce airway contraction followed by measuring airway internal pressure for the next 10 minutes.
The test substance was dissolved in 5% glucose, and a 0.5 mL/kg solution was administered into the airway using an intratracheal administration instrument (1A-1B, Penn-Century).
The surface value over which airway internal pressure had increased at 10 minutes after administration of NKA was taken to represent the strength of NKA-induced airway contraction, and the inhibition rate was calculated relative to a control group (5% glucose transtracheal dose group).

| Structure (SMILES) | Inhibition Rate (%) of NKA-induced airway contraction [%] |
| --- | --- |
| Cl.Cl.O=C(CN1CCOCC1)O[C@H]1Cc2ccccc2C12CCN(CC[C@@]1(c3ccc(Cl)c(Cl)c3)CN(C(=O)c3cc(C(F)(F)F)cc(C(F)(F)F)c3)CCO1)CC2 [Example 6, 1-(2-{(2R)-2-(3,4-Dichlorophenyl)-4-[3,5-bis(trifluoromethyl)benzoyl]morpholin-2-yl}ethyl)spiro((2S)-2-{[(morpholin-1-yl)acetyl]oxy})indane-1,4′-piperidine dihydrochloride] | 97 |
| Cl.Cl.O=C(CO[C@H]1Cc2ccccc2C12CCN(CC[C@@]1(c3ccc(Cl)c(Cl)c3)CN(C(=O)c3cc(C(F)(F)F)cc(C(F)(F)F)c3)CCO1)CC2)N(CCO)CCO [Example 31, 1-(2-{(2R)-2-(3,4-Dichlorophenyl)-4-[3,5-bis(trifluoromethyl)benzoyl]morpholin-2-yl}ethyl)spiro((2S)-2-{2-[bis(2-hydroxyethyl)amino]-2-oxoethoxy})indane-1,4′-piperidine dihydrochloride] | 82 |
| CN(CCO)C(=O)CO[C@H]1Cc2ccccc2C12CCN(CC[C@@]1(c3ccc(Cl)c(Cl)c3)CN(C(=O)c3cc(C(F)(F)F)cc(C(F)(F)F)c3)CCO1)CC2.Cl [Example 32, 1-(2-{(2R)-2-(3,4-Dichlorophenyl)-4-[3,5-bis(trifluoromethyl)benzoyl]morpholin-2-yl}ethyl)spiro((2S)-2-{[N-(2-hydroxyethyl)-N-methylamino]-2-oxoethoxy})indane-1,4′-piperidine hydrochloride] | 89 |
| Cl.O=C(CO[C@H]1Cc2ccccc2C12CCN(CC[C@@]1(c3ccc(Cl)c(Cl)c3)CN(C(=O)c3cc(C(F)(F)F)cc(C(F)(F)F)c3)CCO1)CC2)NCCO [Example 33, 1-(2-{(2R)-2-(3,4-Dichlorophenyl)-4-[3,5-bis(trifluoromethyl)benzoyl]morpholin-2-yl}ethyl)spiro((2S)-2-{2-[N-(2-hydroxyethyl)amino]-2-oxoethoxy})indane-1,4′-piperidine hydrochloride] | 93 |
| CN(CCCCO)C(=O)CO[C@H]1Cc2ccccc2C12CCN(CC[C@@]1(c3ccc(Cl)c(Cl)c3)CN(C(=O)c3cc(C(F)(F)F)cc(C(F)(F)F)c3)CCO1)CC2.Cl [Example 58, 2-[((2S)-1′-{2-[(2R)-4-[3,5-bis(Trifluoromethyl)benzoyl]-2-(3,4-dichlorophenyl)morpholin-2-yl]ethyl}-2,3-dihydrospiro[indene-1,4′-piperidin]-2-yl)oxy]-N-(4-hydroxybutyl)-N-methylacetamide hydrochloride] | 90 |
| CN(CCCO)C(=O)CO[C@H]1Cc2ccccc2C12CCN(CC[C@@]1(c3ccc(Cl)c(Cl)c3)CN(C(=O)c3cc(C(F)(F)F)cc(C(F)(F)F)c3)CCO1)CC2.Cl [Example 64, 2-[((2S)-1′-{2-[(2R)-4-[3,5-bis(Trifluoromethyl)benzoyl]-2-(3,4-dichlorophenyl)morpholin-2-yl]ethyl}-2,3-dihydrospiro[indene-1,4′-piperidin]-2-yl)oxy]-N-(3-hydroxypropyl)-N-methylacetamide hydrochloride] | 87 |
| Cl.O=C(CO[C@H]1Cc2ccccc2C12CCN(CC[C@@]1(c3ccc(Cl)c(Cl)c3)CN(C(=O)c3cc(C(F)(F)F)cc(C(F)(F)F)c3)CCO1)CC2)N1CCC(CCO)CC1 [Example 69, 2-(1-{[((2S)-1′-{2-[(2R)-4-[3,5-bis(Trifluoromethyl)benzoyl]-2-(3,4-dichlorophenyl)morpholin-2-yl]ethyl}-2,3-dihydrospiro[indene-1,4′-piperidin]-2-yl)oxy]acetyl}piperidin-4-yl)ethanol hydrochloride] | 88 |
